Data published in patent US20200230126A1, “TARGETED THERAPEUTICS” (TARVEDA THERAPEUTICS, INC., priority 2017, published 2020).

Legend:
Type in all cases: physicochemical
[1] = pH of reconstituted solution and dosing solutions
Description: The reconstituted solution of SDC-TRAP-0063 Sodium has a pH of about 10.0. This solution is diluted to the target dose in 5% Mannitol, USP. The pH of the infusion solution depends on the concentration of SDC-TRAP-0063 Sodium in the diluted infusion solution. Across the dose ranges employed in the clinical study protocol, the volume of the diluted infusion solution administered will range from 50 to 500 mL, and the pH will range from 8.1 to 9.6. In order to reduce the potential risks of injection site pain and/or damage to the venous endothelium during IV administration, a central venous access line is used for administration of the diluted SDC-TRAP-0063 Sodium.
A new, more robust and patient-friendly formulation of dosing solution was developed. During this development, it was established that the pH of the dosing solution is driven by the concentration of SDC-TRAP-0063 Sodium and increasing the SDC-TRAP-0063 Sodium concentration allows better control of the solubility and pH of dosing solutions.
It is believed that a common ion effect is decreasing the solubility of SDC-TRAP-0063 Sodium in 0.9% Sodium Chloride solution.

[2] = Head-to-head in-use test, 5% Mannitol dosing solution in IV bag, syringe and IV line with rocking
Description: (§1) A head-to-head in-use test of the SDC-TRAP-0063 Sodium 0.9% Sodium Chloride and 5% Mannitol dosing solutions was conducted. This study was intended to directly compare the two based on the specific clinical use direction for each diluent. In this study, the respective IV bags, syringes and IV lines were subjected to a rocking motion during the hold periods to mimic a worst case scenario for agitation of the dosing solution.
The 5% Mannitol dosing solution was tested in a syringe and IV line as designed for use in the clinic with the addition of continuous rocking to simulate a worst case for agitation of the samples (Table 6). This dosing solution was tested at the limits of intended concentrations of 3 mg/mL and 12 mg/mL of SDC-TRAP-0063 Sodium and with a 2 hour hold period in the IV bag, a 6 hour hold period in the syringe and IV line and a 2-hour simulated infusion to exceed the planned clinical timeframes.

[3] = Particulate formation in dosing solutions using 0.9% Sodium Chloride, 5% Mannitol and 5% Dextrose adjusted to the low USP pH limits, with rocking (appearance, pH, HPLC recovery); parameters: key to appearance: Conforms = clear and essentially free of visible particles
Description: A study was conducted with 0.6 mg/mL and 2.4 mg/mL solutions of SDC-TRAP-0063 Sodium using one of three diluents; 0.9% Sodium Chloride as a positive control, and 5% Dextrose and 5% Mannitol as potential new diluents (Table 2). Each diluent was prepared at the lower pH limit of USP to test a worst-case scenario for solubility (the starting pH was 4.5 for 0.9% Sodium Chloride and 5% Mannitol and 3.2 for 5% Dextrose). The SDC-TRAP-0063 Sodium dosing solutions were prepared in glass vials and then placed on a rocker. […]

[4] = Head-to-head in-use test, 0.9% Sodium Chloride dosing solution in IV bag and IV line with rocking; parameters: key to appearance: Conforms = clear and essentially free of visible particles; conditions: for appearance: 0.6 mg/mL in Sodium Chloride
Description: as §1
The 0.9% Sodium Chloride dosing solution was tested in an IV bag and IV line and at 0.6 mg/mL of SDC-TRAP-0063 Sodium as used in the clinic during the product complaint, with a designed 4 hour hold period followed by a 2-hour simulated infusion using a peristaltic pump (Table 5).

[5] = In-use stability study of dosing solutions in 5% Mannitol (mixing container, syringe pump, administration set)
Description: In this study, SDC-TRAP-0063 sodium was dissolved in 5% Mannitol within the concentration range of 3-12 mg/mL. The stabilities of the SDC-TRAP-0063/Mannitol solution in an infusion container and during administration via a syringe pump were studied.
Dosing solutions of 3, 6 and 12 mg/mL of SDC-TRAP-0063 Na were prepared in 250 mL Intravia mixing containers. Pre-determined numbers of vials of SDC-TRAP-0063 Na were re-constituted with WFI and SDC-TRAP-0063 Na was transferred into mixing containers containing 5% mannitol. Each preparation was performed in duplicate.
An in-use test was performed to simulate the clinical infusion process. Freshly prepared dosing solutions were withdrawn from the Intravia containers with the specified syringe size and volume, plus an additional 2 mL for flushing the administration set. The volume of the IV administration set is O.7 mL; the 2 mL flush volume was selected according to standard pharmacy practice. After the administration set was flushed, the syringe was placed on a syringe pump and held at room temperature for 4 hours followed by a 2-hour infusion process. For the 15 mg dose level the simulation infusion was for 1 hour, because the minimal infusion rate specified by clinic was not less than 5 mL/hour. Samples were collected from the mixing containers at T0 and T2 hours and from the administration sets at T0 and from the bulk container at the end of infusion, at T5 hours for 15 mg sample and at T6 hours for all other samples, as outlined in Table 8.
A flexible bracketing design, intended to cover possible syringe volumes from 10 to 60 mL of nominal volumes, possible variation of the syringe fill volumes from 10 to 75% of the nominal syringe volume and concentration ranges of the dosing solutions from 3 to 12 mg/ml was executed in this study. The maximum fill volume for each syringe is limited to 75% of the nominal volume.

SMILES: CCc1c2c(nc3ccc(OC(=O)N4CCC(CCn5ccc6cc(-n7c(O)nnc7-c7cc(C(C)C)c(O)cc7O)ccc65)CC4)cc13)-c1cc([C@@](O)(CC)C(=O)[O-])c(CO)c(=O)n1C2.[Na+] [SDC-TRAP-0063 Sodium, Sodium (S)-2-(2-((4-(2-(5-(3-(2,4-dihydroxy-5-isopropylphenyl)-5-hydroxy-4H-1,2,4-triazol-4-yl)-1H-indol-1-yl)ethyl)piperidine-1-carbonyl)oxy)-12-ethyl-8-(hydroxymethyl)-9-oxo-9,11-dihydroindolizino[1,2-b]quinolin-7-yl)-2-hydroxybutanoate]
- pH observed for dosing solutions ([1]; 0.9% Sodium chloride): 8.6-8.7
- pH range observed for dosing solutions ([1]; 5% Mannitol): 9.4-10.2
- observed pH for all dosing solutions ([1]; 5% Mannitol, concentrations from 3-12 mg/mL): ≥ 9.4
- precipitation ([2]; 3 mg/mL and 12 mg/mL, all time points, continuous rocking): no precipitation was observed at any time point
- Recovery of SDC-TRAP-0063 Sodium (Calculated vs. Initial concentration) ([2]; 3 mg/mL, Bulk solution, 8 hours (6 + 2 infusion)): 98.0%
- Recovery of SDC-TRAP-0063 Sodium (Calculated vs. Initial concentration) ([2]; 3 mg/mL, IV bag, 0 hours): 100.0%
- Recovery of SDC-TRAP-0063 Sodium (Calculated vs. Initial concentration) ([2]; 3 mg/mL, IV bag, 2 hours): 102.5%
- Recovery of SDC-TRAP-0063 Sodium (Calculated vs. Initial concentration) ([2]; 3 mg/mL, IV line (infusion end), 8 hours (6 + 2 infusion)): 98.7%
- Recovery of SDC-TRAP-0063 Sodium (Calculated vs. Initial concentration) ([2]; 3 mg/mL, IV line (infusion start), 6 hours, low volume in syringe, complete sample not obtained): 93.5%^1
- Recovery of SDC-TRAP-0063 Sodium (Calculated vs. Initial concentration) ([2]; 3 mg/mL, IV line, 0 hours): 97.2%
- Recovery of SDC-TRAP-0063 Sodium (Calculated vs. Initial concentration) ([2]; 12 mg/mL, Bulk solution, 8 hours (6 + 2 infusion)): 105.4%
- Recovery of SDC-TRAP-0063 Sodium (Calculated vs. Initial concentration) ([2]; 12 mg/mL, IV bag, 0 hours): 100.0%
- Recovery of SDC-TRAP-0063 Sodium (Calculated vs. Initial concentration) ([2]; 12 mg/mL, IV bag, 2 hours): 103.9%
- Recovery of SDC-TRAP-0063 Sodium (Calculated vs. Initial concentration) ([2]; 12 mg/mL, IV line (infusion end), 8 hours (6 + 2 infusion)): 104.3%
- Recovery of SDC-TRAP-0063 Sodium (Calculated vs. Initial concentration) ([2]; 12 mg/mL, IV line (infusion start), 6 hours): 101.6%
- Recovery of SDC-TRAP-0063 Sodium (Calculated vs. Initial concentration) ([2]; 12 mg/mL, IV line, 0 hours): 103.6%
- pH ([3]; 0.9% Sodium Chloride, pH 4.5, 0.6 mg/mL): 8.7
- appearance ([3]; 0.9% Sodium Chloride, pH 4.5, 0.6 mg/mL, 0 hours): Conforms^1
- appearance ([3]; 0.9% Sodium Chloride, pH 4.5, 0.6 mg/mL, 6 hours): Precipitate
- appearance ([3]; 0.9% Sodium Chloride, pH 4.5, 0.6 mg/mL, 24 hours): Precipitate
- pH ([3]; 0.9% Sodium Chloride, pH 4.5, 2.4 mg/mL): 9.4
- appearance ([3]; 0.9% Sodium Chloride, pH 4.5, 2.4 mg/mL, 0 hours): Conforms^1
- appearance ([3]; 0.9% Sodium Chloride, pH 4.5, 2.4 mg/mL, 6 hours): Precipitate
- appearance ([3]; 0.9% Sodium Chloride, pH 4.5, 2.4 mg/mL, 24 hours): Precipitate
- pH ([3]; 5% Dextrose, pH 3.2, 0.6 mg/mL): 7.5
- appearance ([3]; 5% Dextrose, pH 3.2, 0.6 mg/mL, 0 hours): Conforms^1
- appearance ([3]; 5% Dextrose, pH 3.2, 0.6 mg/mL, 6 hours): Precipitate
- appearance ([3]; 5% Dextrose, pH 3.2, 0.6 mg/mL, 24 hours): Precipitate
- pH ([3]; 5% Dextrose, pH 3.2, 2.4 mg/mL): 9.1
- appearance ([3]; 5% Dextrose, pH 3.2, 2.4 mg/mL, 0 hours): Conforms^1
- appearance ([3]; 5% Dextrose, pH 3.2, 2.4 mg/mL, 6 hours): Conforms^1
- appearance ([3]; 5% Dextrose, pH 3.2, 2.4 mg/mL, 24 hours): Precipitate
- pH ([3]; 5% Mannitol, pH 4.5, 0.6 mg/mL): 8.6
- appearance ([3]; 5% Mannitol, pH 4.5, 0.6 mg/mL, 0 hours): Conforms^1
- appearance ([3]; 5% Mannitol, pH 4.5, 0.6 mg/mL, 6 hours): Precipitate
- appearance ([3]; 5% Mannitol, pH 4.5, 0.6 mg/mL, 24 hours): Precipitate
- pH ([3]; 5% Mannitol, pH 4.5, 2.4 mg/mL): 9.8
- appearance ([3]; 5% Mannitol, pH 4.5, 2.4 mg/mL, 0 hours): Conforms^1
- appearance ([3]; 5% Mannitol, pH 4.5, 2.4 mg/mL, 6 hours): Conforms^1
- appearance ([3]; 5% Mannitol, pH 4.5, 2.4 mg/mL, 24 hours): Conforms^1
- termination of the simulated infusion after onset due to occlusion of the in-line filter ([4]; 0.6 mg/mL in 0.9% Sodium Chloride, 2-hour simulated infusion, peristaltic pump): ≤ 1 h
- precipitation during the hold period ([4]; 0.6 mg/mL in 0.9% Sodium Chloride, 4 hour hold period, rocking): Precipitation was observed in both the IV bag and IV line
- appearance ([4]; Bulk solution, at termination, collected after in line filter): Conforms^1
- appearance ([4]; Drip Chamber of the IV Administration set, less than 1 hour (infusion terminated)): Hazy with fine floating
- appearance ([4]; IV Administration set, 0 hours, collected after in line filter): Conforms^1
- appearance ([4]; IV bag, 0 hours): Conforms^1
- appearance ([4]; IV bag, 2 hours): Slightly hazy solution
- appearance ([4]; IV bag, 4 hours, collected after in line filter): Conforms^1
- total impurities ([5]; 2-hour storage in mixing containers and total of 6 hours simulated hold and infusion (5 hours for 15 mg dose)): within the acceptable ranges
- HPLC assay values ([5]; 3, 6 and 12 mg/mL, samples collected during the study): did not show any trends and were within expected ranges
- appearance of test samples ([5]; 3, 6 and 12 mg/mL, up to 6 hours): clear solutions essentially free of particles
- in-use stability profile ([5]; concentration range of 3-12 mg/mL): acceptable stability profile
